Source: US11130769B2 (Prelude Therapeutics Incorporated, priority 2018, dated 2021)
Read-outs that look alike come from different tables or passages of the source.

What was measured:
H929 cells = assay: Cell viability assay (H929 10 FBS); type: cell-based; conditions: Homo sapiens, NCI-H929, 24 hours, read-out: H929_10FBS IC50
How it was run: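 H929 cells, 4000/well, in RPMI 1640 with 10% FBS, sodium pyruvate, HEPES and glucose were exposed to compound 24 h at 37 °C. Viability read as luminescence after 30-60 min at RT with CellTiter-Glo or ATPlite 1 Step.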

MCL-1 = MCL-1 (Homo sapiens (Human), UniProt Q07820); assay: Cell free Mcl-1:Bim affinity assay (fluorescence polarization competition); type: binding; conditions: 15 nM MCL-1, 5 nM FITC-Bim, 1 hour at room temperature, read-out: BIM_Ki
How it was run: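 Compounds competed with FITC-labelled Bim peptide (5 nM) for MCL-1 (15 nM) in HEPES/NaCl buffer with 1% DMSO, 1 h at room temperature. Fluorescence polarization (535 nm emission) gave % inhibition versus DMSO and positive controls; IC50 from 10-point curves, converted to Ki by the Nikolovska-Coleska equation.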

Chain of MCL-1 (Q07820 whole entry): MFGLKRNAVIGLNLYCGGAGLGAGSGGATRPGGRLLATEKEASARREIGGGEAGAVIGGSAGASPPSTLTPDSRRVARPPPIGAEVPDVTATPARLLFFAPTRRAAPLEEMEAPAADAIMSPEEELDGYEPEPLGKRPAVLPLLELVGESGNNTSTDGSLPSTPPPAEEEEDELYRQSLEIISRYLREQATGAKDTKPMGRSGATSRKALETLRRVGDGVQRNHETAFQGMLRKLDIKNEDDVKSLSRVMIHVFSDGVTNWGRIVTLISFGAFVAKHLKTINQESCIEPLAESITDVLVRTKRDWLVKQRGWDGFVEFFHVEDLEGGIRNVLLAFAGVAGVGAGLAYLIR

SMILES	IC50 (H929 cells) [nM]	Ki (MCL-1; class symbols) [nM]	Ki (MCL-1; numeric values) [nM]
CO[C@@H]1/C=C\CN[C@@H](C)C(=O)NS(=O)(=O)c2ccc3c(c2)N(C[C@@H]2CC[C@H]21)C[C@@]1(CCCc2cc(Cl)ccc21)CO3 [Example 118, (3R,6R,7R,8Z,12S,22S)-6′-Chloro-7-methoxy-12-methyl-15,15-dioxo-spiro[20-oxa-15-thia-1,11,14-triazatetracyclo[14.7.2.03,6.019,24]pentacosa-8,16(25),17,19(24)-tetraene-22,1′-tetralin]-13-one]	> 1000	1 to 100	–
CC(C)(C)OC(=O)N1CCC(C(=O)NS(=O)(=O)c2ccc3c(c2)N(CC2CCC2)CC2(CCCc4cc(Cl)ccc42)CO3)CC1 (stereo not shown) [Example 21, tert-Butyl 4-[[6′-chloro-5-(cyclobutylmethyl)spiro[2,4-dihydro-1,5-benzoxazepine-3,1′-tetralin]-7-yl]sulfonylcarbamoyl]piperidine-1-carboxylate]	> 1000	–	53.3
CO[C@@H]1/C=C/CN[C@@H](C2CC2)C(=O)NS(=O)(=O)c2ccc3c(c2)N(C[C@@H]2CC[C@H]21)C[C@@]1(CCCc2cc(Cl)ccc21)CO3 [Example 126, (3R,6R,7R,8E,12S,22S)-6′-Chloro-7-methoxy-12-cyclopropyl-15,15-dioxo-spiro[20-oxa-15-thia-1,11,14-triazatetracyclo[14.7.2.03,6.019,24]pentacosa-8,16,18,24-tetraene-22,1′-tetralin]-13-one]	> 1000	1 to 100	–
CO[C@H]1/C=C/CCCCC(=O)NS(=O)(=O)c2ccc3c(c2)N(C[C@@H]2CC[C@H]21)C[C@@]1(CCCc2cc(Cl)ccc21)CO3 [Example 83, (3R,6R,7S,8E,23S)-6′-Chloro-7-methoxy-16,16-dioxo-spiro[21-oxa-16-thia-1,15-diazatetracyclo[15.7.2.03,6.020,25]hexacosa-8,17,19,25-tetraene-23,1′-tetralin]-14-one]	> 1000	1 to 100	–
CN(C)C(=O)CO[C@H]1/C=C/COC2(CC2)C(=O)NS(=O)(=O)c2ccc3c(c2)N(C[C@@H]2CC[C@H]21)C[C@@]1(CCCc2cc(Cl)ccc21)CO3 [Example 142, 2-[(3R,6R,7S,8E,22S)-6′-Chloro-12,12-ethylene-13,15,15-trioxo-spiro[11,20-dioxa-15-thia-1,14-diazatetracyclo[14.7.2.03,6.019,24]pentacosa-8,16,18,24-tetraene-22,1′-tetralin]-7-yl]oxy-N,N-dimethyl-acetamide]	< 1000	< 1	–
[2H]C1([2H])/C=C/[C@H](OC(=O)N(C)C)[C@@H]2CC[C@H]2CN2C[C@@]3(CCCc4cc(Cl)ccc43)COc3ccc(cc32)S(=O)(=O)NC(=O)C(C)(C)O1 [Example 312, [(3R,6R,7S,8E,22S)-6′-Chloro-10,10-dideuterio-12,12-dimethyl-13,15,15-trioxo-spiro[11,20-dioxa-15-thia-1,14-diazatetracyclo[14.7.2.03,6.019,24]pentacosa-8,16,18,24-tetraene-22,1′-tetralin]-7-yl] N,N-dimethylcarbamate]	< 500	< 1	–
CN(C)C(=O)CO[C@@H]1/C=C/COC(C)(C)C(=O)NS(=O)(=O)c2ccc3c(c2)N(C[C@@H]2CC[C@H]21)C[C@@]1(CCCc2cc(Cl)ccc21)CO3 [Example 141, 2-[(3R,6R,7R,8E,22S)-6′-Chloro-12,12-dimethyl-13,15,15-trioxo-spiro[11,20-dioxa-15-thia-1,14-diazatetracyclo[14.7.2.03,6.019,24]pentacosa-8,16,18,24-tetraene-22,1′-tetralin]-7-yl]oxy-N,N-dimethyl-acetamide]	< 500	< 1	–
CN1C/C=C/[C@H](OC(=O)N2CCC2)[C@@H]2CC[C@H]2CN2C[C@@]3(CCCc4cc(Cl)ccc43)COc3ccc(cc32)S(=O)(=O)NC(=O)C1(C)C [Example 216, [(3R,6R,7S,8E,22S)-6′-Chloro-11,12,12-trimethyl-13,15,15-trioxo-spiro[20-oxa-15-thia-1,11,14-triazatetracyclo[14.7.2.03,6.019,24]pentacosa-8,16,18,24-tetraene-22,1′-tetralin]-7-yl]azetidine-1-carboxylate]	< 500	< 1	–

Continued, values first:

IC50 (H929 cells) [nM]	Ki (MCL-1; class symbols) [nM]	Ki (MCL-1; numeric values) [nM]	SMILES
< 500	< 1	–	CC(C)NC(=O)O[C@H]1/C=C/CN(C)C(C)(C)C(=O)NS(=O)(=O)c2ccc3c(c2)N(C[C@@H]2CC[C@H]21)C[C@@]1(CCCc2cc(Cl)ccc21)CO3 [Example 207, [(3R,6R,7S,8E,22S)-6′-Chloro-11,12,12-trimethyl-13,15,15-trioxo-spiro[20-oxa-15-thia-1,11,14-triazatetracyclo[14.7.2.03,6.019,24]pentacosa-8,16,18,24-tetraene-22,1′-tetralin]-7-yl] N-isopropylcarbamate]
< 500	< 1	–	COC1CN(C(=O)O[C@H]2/C=C/COC(C)(C)C(=O)NS(=O)(=O)c3ccc4c(c3)N(C[C@@H]3CC[C@H]32)C[C@@]2(CCCc3cc(Cl)ccc32)CO4)C1 [Example 56, [(3R,6R,7S,8E,22S)-6′-Chloro-12,12-dimethyl-13,15,15-trioxo-spiro[11,20-dioxa-15-thia-1,14-diazatetracyclo[14.7.2.03,6.019,24]pentacosa-8,16,18,24-tetraene-22,1′-tetralin]-7-yl] 3-methoxyazetidine-1-carboxylate]
< 500	< 1	–	CCOC1CN(C(=O)O[C@H]2/C=C/CN(C)C3(CCC3)C(=O)NS(=O)(=O)c3ccc4c(c3)N(C[C@@H]3CC[C@H]32)C[C@@]2(CCCc3cc(Cl)ccc32)CO4)C1 [Example 244, [(3R,6R,7S,8E,22S)-6′-Chloro-11-methyl-12,12-(1,3-propylene)-13,15,15-trioxo-spiro[20-oxa-15-thia-1,11,14-triazatetracyclo[14.7.2.03,6.019,24]pentacosa-8,16,18,24-tetraene-22,1′-tetralin]-7-yl] 3-ethoxyazetidine-1-carboxylate]
< 500	< 1	–	CC1(C)OC/C=C/[C@H](OCC(=O)N[C@H]2CCOC2)[C@@H]2CC[C@H]2CN2C[C@@]3(CCCc4cc(Cl)ccc43)COc3ccc(cc32)S(=O)(=O)NC1=O [Example 285, 2-[(3R,6R,7S,8E,22S)-6′-Chloro-12,12-dimethyl-13,15,15-trioxo-spiro[11,20-dioxa-15λ6-thia-1,14-diazatetracyclo[14.7.2.03,6.019,24]pentacosa-8,16,18,24-tetraene-22,1′-tetralin]-7-yl]oxy-N-[(3S)-tetrahydrofuran-3-yl]acetamide]
< 500	< 1	–	CN(C(=O)O[C@H]1/C=C/COC(C)(C)C(=O)NS(=O)(=O)c2ccc3c(c2)N(C[C@@H]2CC[C@H]21)C[C@@]1(CCOc2cc(Cl)ccc21)CO3)[C@@H]1CCOC1 [Example 301, [(3R,6R,7S,8E,22S)-7′-Chloro-12,12-dimethyl-13,15,15-trioxo-spiro[11,20-dioxa-15-thia-1,14-diazatetracyclo[14.7.2.03,6.019,24]pentacosa-8,16,18,24-tetraene-22,4′-chromane]-7-yl] N-methyl-N-[(3R)-tetrahydrofuran-3-yl]carbamate]
< 500	< 1	–	CN(C(=O)O[C@H]1/C=C/CN(C)C2(CCC2)C(=O)NS(=O)(=O)c2ccc3c(c2)N(C[C@@H]2CC[C@H]21)C[C@@]1(CCCc2cc(Cl)ccc21)CO3)[C@@H]1CCOC1 [Example 242, [(3R,6R,7S,8E,22S)-6′-Chloro-11-methyl-12,12-(1,3-propylene)-13,15,15-trioxo-spiro[20-oxa-15-thia-1,11,14-triazatetracyclo[14.7.2.03,6.019,24]pentacosa-8,16,18,24-tetraene-22,1′-tetralin]-7-yl] N-methyl-N-[(3R)-tetrahydrofuran-3-yl]carbamate]
< 500	1 to 100	–	CN(C)C(=O)O[C@H]1/C=C/CN2CCC[C@H]2C(=O)NS(=O)(=O)c2ccc3c(c2)N(C[C@@H]2CC[C@H]21)C[C@@]1(CCCc2cc(Cl)ccc21)CO3 [Example 294, [(3R,6R,7S,8E,15S,25S)-6′-Chloro-16,18,18-trioxo-spiro[23-oxa-18-thia-1,11,17-triazapentacyclo[17.7.2.03,6.011,15.022,27]octacosa-8,19,21,27-tetraene-25,1′-tetralin]-7-yl] N,N-dimethylcarbamate]
< 500	< 1	–	C[C@@H]1C(=O)NS(=O)(=O)c2ccc3c(c2)N(C[C@@H]2CC[C@H]2[C@@H](OC(=O)N(C)C)/C=C/CN1C)C[C@@]1(CCCc2cc(Cl)ccc21)CO3 [Example 145, [(3R,6R,7S,8E,12R,22S)-6′-Chloro-11,12-dimethyl-13,15,15-trioxo-spiro[20-oxa-15-thia-1,11,14-triazatetracyclo[14.7.2.03,6.019,24]pentacosa-8,16,18,24-tetraene-22,1′-tetralin]-7-yl] N,N-dimethylcarbamate]
< 500	< 1	–	CN(C(=O)O[C@H]1/C=C/CN(C)C2(CCC2)C(=O)NS(=O)(=O)c2ccc3c(c2)N(C[C@@H]2CC[C@H]21)C[C@@]1(CCCc2cc(Cl)ccc21)CO3)[C@H]1CCOC1 [Example 241, [(3R,6R,7S,8E,22S)-6′-Chloro-11-methyl-12,12-(1,3-propylene)-13,15,15-trioxo-spiro[20-oxa-15-thia-1,11,14-triazatetracyclo[14.7.2.03,6.019,24]pentacosa-8,16,18,24-tetraene-22,1′-tetralin]-7-yl] N-methyl-N-[(3S)-tetrahydrofuran-3-yl]carbamate]
